{"source": "PubChem BioAssay (NCI)", "note": "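Cells were grown in 96-well plates and exposed to each compound for 48 hours at five concentrations; endpoints were interpolated linearly between bracketing concentrations, or set to the highest concentration if not reached. GI50 is the concentration that inhibits growth by half. At the TGI there is no net growth.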"}
{"tested_on": "HT29 colon", "experiment": "NCI anticancer screen, dose series, 48 h", "units": {"GI50": "µM", "TGI": "µM"}}
{"smiles": "CCOC(=O)C1=C(C)N(N)C(=S)NC1c1ccc(C)cc1", "note": "(stereo not given)", "GI50": 26, "TGI": "> 100"}
{"smiles": "O=C(O)c1ccccc1-c1ccccc1C(=O)Nc1ccc2c(c1)Cc1cc(F)ccc1-2", "TGI": "> 100"}
{"tested_on": "CCRF-CEM leukemia", "experiment": "NCI anticancer screen, dose series, 48 h", "units": {"GI50": "µM", "TGI": "µM"}}
{"smiles": "CC(=O)Oc1ccccc1C(=O)N=C1[Se]CCN1C(=O)c1ccccc1OC(C)=O", "GI50": 0.556, "TGI": "> 100"}
{"smiles": "Cc1n(Cc2ccc3ccccc3c2)cc[n+]1Cc1ccc2ccccc2c1", "GI50": 1.87, "TGI": 7.19}
{"smiles": "O=C1/C(=C\\c2cccn2Cc2ccccc2)c2ccccc2N1c1c(Cl)cccc1Cl", "GI50": "> 100", "TGI": "> 100"}
{"smiles": "Cc1sc2nc(NCCc3c[nH]c4ccc(Cl)cc34)[nH]c(=O)c2c1C", "GI50": 2.63, "TGI": 14.2}
{"smiles": "COc1cc(/C=C2\\C(=O)Nc3ccc(F)cc32)cc(OC)c1OC", "GI50": 23.3, "TGI": "> 100"}
{"smiles": "C#C[C@]1(O)CC[C@H]2[C@@H]3CC=C4c5sc(Nc6ccccc6)nc5CC[C@]4(C)[C@H]3CC[C@@]21C", "GI50": 1.1, "TGI": 11.3}
{"smiles": "O=C(O)c1c(-c2nccc3ccccc23)[nH]c(-c2ccccc2)c1S(=O)(=O)O", "TGI": "> 100"}
{"smiles": "COc1ccc(/C=c2/sc3n(c2=O)C(c2ccc(OC)c(OC)c2)C2=C(N=3)c3cc(F)ccc3OC2)cc1", "note": "(stereo not given)", "GI50": "> 55.7", "TGI": "> 100"}
{"smiles": "Cc1cn2c(/C=C3/C(=O)Nc4ccccc43)c(-c3ccc(Cl)cc3)nc2s1", "GI50": 17.6, "TGI": "> 50"}
{"smiles": "O=C(O)c1cc(O)c2c(c1)C(C1c3cc(C(=O)O)cc(O)c3C(=O)c3c(OC4OC(CO)C(O)C(O)C4O)cccc31)c1cccc(OC3OC(CO)C(O)C(O)C3O)c1C2=O", "note": "(stereo not given)", "GI50": "> 100", "TGI": "> 100"}
{"smiles": "O=C(CN(C1CCCCC1)C1CCCCC1)Nc1ccc(S(=O)(=O)c2ccc(NC(=O)CN(C3CCCCC3)C3CCCCC3)cc2)cc1", "GI50": 0.222, "TGI": 1.28}
{"smiles": "O=c1[nH]c2cc(Cl)ccc2n1C1CCN(CCCC(c2ccc(F)cc2)c2ccc(F)cc2)CC1", "GI50": 2.31, "TGI": 6.98}
{"smiles": "Cc1c[n+](Cc2ccc3ccccc3c2)cn1Cc1ccc2ccccc2c1", "GI50": 2.45, "TGI": 5.71}
{"smiles": "Nc1nc(Br)nc2c1ncn2C1CC(O)C(CO)O1", "note": "(stereo not given)", "GI50": 0.204, "TGI": "> 100"}
{"smiles": "Nc1nc(Nc2ccccc2)c2ncn(Cc3cc4c(cc3Br)OCO4)c2n1", "GI50": 0.0431}
{"smiles": "CCOC(=O)N1CCN(C(=O)c2ccc(C(F)(F)F)nc2Nc2cc(Cl)ccc2C)CC1", "GI50": 18.9, "TGI": "> 100"}
{"smiles": "Cc1ccc(Nc2nc(N)c(C(=O)c3ccc(C#N)cc3)s2)cc1", "GI50": 0.398, "TGI": "> 100"}
{"smiles": "CN1CCc2c(Sc3ccc(C(=O)NO)cc3)c3ccccc3n2C1", "GI50": 1.87, "TGI": "> 24.9"}
{"smiles": "COc1ccc(CNc2c3ccccc3nc3ccccc23)cc1OC", "GI50": 2.82, "TGI": 19.2}
{"smiles": "CN(C)c1ccc2nc3ccc(=O)cc-3sc2c1", "GI50": 0.694, "TGI": 58.1}
{"smiles": "CC(=O)c1c(CBr)n([O-])c2ccccc2[n+]1=O", "GI50": 2.14, "TGI": 8.12}
{"smiles": "O=C(Nc1ccc(Cl)cc1F)c1cc(Br)ccc1O", "GI50": 2.37, "TGI": "> 27.6"}
{"smiles": "CCN(CC)CC(C)(C)C(=O)/C=C/c1ccc(Cl)c(Cl)c1", "GI50": 1.14, "TGI": 4.22}
{"smiles": "COc1ccc(C2C(C#N)=C(N)OC3=C2COc2ccc(F)cc23)cc1OC", "note": "(stereo not given)", "GI50": 47.5, "TGI": "> 100"}
{"smiles": "CCOC(=O)C1=C(C)N(N)C(=S)NC1c1ccc(C)cc1", "note": "(stereo not given)", "GI50": 49.8, "TGI": "> 100"}
{"tested_on": "K-562 leukemia", "experiment": "NCI anticancer screen, dose series, 48 h", "units": {"GI50": "µM", "TGI": "µM"}}
{"smiles": "CC(=O)Oc1ccccc1C(=O)N=C1[Se]CCN1C(=O)c1ccccc1OC(C)=O", "GI50": 0.94, "TGI": "> 100"}
{"smiles": "Cc1n(Cc2ccc3ccccc3c2)cc[n+]1Cc1ccc2ccccc2c1", "GI50": 0.478, "TGI": 4.51}
{"smiles": "O=C(O)Cc1c(O)ccc2ccccc12", "TGI": "> 100"}
{"smiles": "O=C1/C(=C\\c2cccn2Cc2ccccc2)c2ccccc2N1c1c(Cl)cccc1Cl", "GI50": "> 100", "TGI": "> 100"}
{"smiles": "Cc1sc2nc(NCCc3c[nH]c4ccc(Cl)cc34)[nH]c(=O)c2c1C", "GI50": 3.03, "TGI": 10.7}
{"smiles": "CSC1(CC(=O)N(C)C)C(=O)Nc2ccccc21", "note": "(stereo not given)", "TGI": "> 100"}
{"smiles": "COc1cc(/C=C2\\C(=O)Nc3ccc(F)cc32)cc(OC)c1OC", "GI50": 5.67, "TGI": "> 100"}
{"smiles": "C#C[C@]1(O)CC[C@H]2[C@@H]3CC=C4c5sc(Nc6ccccc6)nc5CC[C@]4(C)[C@H]3CC[C@@]21C", "GI50": 1.86, "TGI": "> 100"}
{"smiles": "COc1ccc(/C=c2/sc3n(c2=O)C(c2ccc(OC)c(OC)c2)C2=C(N=3)c3cc(F)ccc3OC2)cc1", "note": "(stereo not given)", "GI50": 19.9, "TGI": "> 100"}
{"smiles": "Cc1cn2c(/C=C3/C(=O)Nc4ccccc43)c(-c3ccc(Cl)cc3)nc2s1", "GI50": 46.5, "TGI": "> 50"}
{"smiles": "O=C(O)c1cc(O)c2c(c1)C(C1c3cc(C(=O)O)cc(O)c3C(=O)c3c(OC4OC(CO)C(O)C(O)C4O)cccc31)c1cccc(OC3OC(CO)C(O)C(O)C3O)c1C2=O", "note": "(stereo not given)", "GI50": "> 100", "TGI": "> 100"}
{"smiles": "O=C(CN(C1CCCCC1)C1CCCCC1)Nc1ccc(S(=O)(=O)c2ccc(NC(=O)CN(C3CCCCC3)C3CCCCC3)cc2)cc1", "GI50": 0.277, "TGI": 1.38}
{"smiles": "O=c1[nH]c2cc(Cl)ccc2n1C1CCN(CCCC(c2ccc(F)cc2)c2ccc(F)cc2)CC1", "GI50": 2.98, "TGI": "> 100"}
{"smiles": "Cc1c[n+](Cc2ccc3ccccc3c2)cn1Cc1ccc2ccccc2c1", "GI50": 1.38, "TGI": 4.59}
{"smiles": "Nc1nc(Br)nc2c1ncn2C1CC(O)C(CO)O1", "note": "(stereo not given)", "GI50": "> 24", "TGI": "> 100"}
{"smiles": "Nc1nc(Nc2ccccc2)c2ncn(Cc3cc4c(cc3Br)OCO4)c2n1", "GI50": 0.0415, "TGI": "> 39.9"}
{"smiles": "CCOC(=O)N1CCN(C(=O)c2ccc(C(F)(F)F)nc2Nc2cc(Cl)ccc2C)CC1", "GI50": 6.31, "TGI": "> 100"}
{"smiles": "Cc1ccc(Nc2nc(N)c(C(=O)c3ccc(C#N)cc3)s2)cc1", "GI50": 0.0685, "TGI": "> 100"}
{"smiles": "COc1ccc(-c2cc(-c3cccn3C)c(C#N)c(N)n2)cc1OC", "GI50": 55.6, "TGI": "> 100"}
{"smiles": "CN1CCc2c(Sc3ccc(C(=O)NO)cc3)c3ccccc3n2C1", "GI50": 2.91, "TGI": "> 33"}
{"smiles": "COc1ccc(CNc2c3ccccc3nc3ccccc23)cc1OC", "GI50": 2.34, "TGI": 25.2}
{"smiles": "CN(C)c1ccc2nc3ccc(=O)cc-3sc2c1", "GI50": 0.919, "TGI": "> 100"}
{"smiles": "CC(=O)c1c(CBr)n([O-])c2ccccc2[n+]1=O", "GI50": 3.45, "TGI": 12.5}
{"smiles": "O=C(Nc1ccc(Cl)cc1F)c1cc(Br)ccc1O", "GI50": 0.678, "TGI": "> 100"}
{"smiles": "C#CC(=O)Nc1cccc(Nc2nc3c(c(NCc4ccccc4)n2)CCCC3)c1", "GI50": 1.39, "TGI": 5.96}
{"smiles": "Nc1c(C(=O)N/N=C/c2ccc(-c3ccc(Cl)cc3)o2)cnn1-c1ccnc2c(C(F)(F)F)cccc12", "GI50": 97.7, "TGI": "> 100"}
{"smiles": "CCN(CC)CC(C)(C)C(=O)/C=C/c1ccc(Cl)c(Cl)c1", "GI50": 1.1, "TGI": 6.29}
{"smiles": "CCN(CC)CCNCC(=O)Oc1ccc(/C=C/C(=O)CC(=O)/C=C/c2ccc(OC(=O)CNCCN(CC)CC)c(OC)c2)cc1OC", "GI50": 28.7, "TGI": "> 100"}
{"smiles": "O=C(O)c1cccc(OCCO)c1", "TGI": "> 100"}
{"smiles": "COc1ccc(C2C(C#N)=C(N)OC3=C2COc2ccc(F)cc23)cc1OC", "note": "(stereo not given)", "GI50": 31.8, "TGI": "> 100"}
{"smiles": "CCOC(=O)C1=C(C)N(N)C(=S)NC1c1ccc(C)cc1", "note": "(stereo not given)", "GI50": 21.6, "TGI": "> 100"}
{"tested_on": "SNB-75 CNS", "experiment": "NCI anticancer screen, dose series, 48 h", "units": {"GI50": "µM", "TGI": "µM"}}
{"smiles": "CC(=O)Oc1ccccc1C(=O)N=C1[Se]CCN1C(=O)c1ccccc1OC(C)=O", "GI50": 1.25, "TGI": 3}
{"smiles": "Cc1n(Cc2ccc3ccccc3c2)cc[n+]1Cc1ccc2ccccc2c1", "GI50": 0.626, "TGI": 6.14}
{"smiles": "O=C(O)Cc1c(O)ccc2ccccc12", "TGI": "> 100"}
